These results are taken from patent publication US20170174632A1, “4-OXO-1, 4-DIHYDROQUINOLINE-3-CARBOXAMIDE AS SELECTIVE LIGAND FOR CANNABINOID RECEPTOR 2 FOR DIAGNOSIS AND THERAPY” (priority 2014, published 2017).

Data set [1] concerns the target T1, CB2 (Rattus norvegicus, UniProt Q9QZN9).
T1 sequence (Q9QZN9 1-360): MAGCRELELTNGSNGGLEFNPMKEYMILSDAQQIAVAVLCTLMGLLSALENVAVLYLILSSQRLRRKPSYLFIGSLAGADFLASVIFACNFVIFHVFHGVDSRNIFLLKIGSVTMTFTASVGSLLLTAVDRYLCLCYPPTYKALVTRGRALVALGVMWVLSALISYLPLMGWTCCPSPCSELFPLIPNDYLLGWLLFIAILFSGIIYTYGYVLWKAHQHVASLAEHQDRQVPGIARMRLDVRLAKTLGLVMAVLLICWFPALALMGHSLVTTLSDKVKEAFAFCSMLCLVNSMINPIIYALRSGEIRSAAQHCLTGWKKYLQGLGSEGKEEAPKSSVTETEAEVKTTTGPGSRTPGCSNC
Set-up: host or cells: rats in vivo (Mu et al., J. Neurochem. 2013). The settings on record: cited from earlier work.

The conditions of data set [2]: in vitro transport assay, radiolabelled KD2; cited from earlier work.
For data set [3] the following is noted: cited from earlier work.
Data set [4] concerns the target T2, CB2 (Homo sapiens, UniProt P34972). As to the kind of experiment: In vitro competitive binding assay, [3H]CP55,940 displacement, hCB2 membranes. Set-up: purchased PerkinElmer; host or cells: CHO-K1 cells, stably transfected (membrane preparation). The conditions noted are these: CHO-K1 membranes with human CB2, 1.4 nM [3H]CP55,940, Cheng-Prusoff, three experiments in triplicates; read-out: KiCB2.
Description: The following test was carried out in order to determine the binding affinity of the compounds of formula I towards CB2 and CB1:
Competitive binding reactions were initiated by the addition of a membrane preparation obtained from CHO-K1 cells stably transfected with human CB1 and CB2, respectively, from PerkinElmer (0.5 pig/tube for hCB1 and hCB2) into incubation tubes. As displacer, 1.4 nM [^3H]CP55,940 (PerkinElmer) was used and 6 to 10 concentrations (ranging from 1 pM to 10 μM) of displacing ligand (compound to test) in assay buffer (50 mM TRIS, 1 mM EDTA, 3 mM MgCl2 and 0.05% bovine serum albumin, pH adjusted to 7.4) were added. Nonspecific binding was defined by the presence of 5 μM WIN-55212-2. After incubation at 30° C. for 90 min reactions were terminated by the addition of 3 mL ice cold assay buffer followed by rapid vacuum filtration through a Whatman GF/C filter (pre-soaked for 2 h in 0.05% polyethylenimine in water) and washed twice with 3 mL ice cold assay buffer. The bound activity was counted in a Beckman LS 6500 Liquid Scintillation Counter after adding 3 mL scintillation cocktail (Ultima Gold, Perkin Elmer) and thorough shaking. For each mean value three experiments, each in triplicates, were performed. K, values were determined with the equation from Cheng-Prusoff.

Data set [5] is described as follows: Distribution coefficient (log D), shake-flask method. It is filed as physicochemical. The settings on record: octanol / phosphate buffer pH 7.4, shake-flask, radiotracer. Here is the method: The partition coefficient D was determined by the shake-flask method. Octanol saturated with phosphate buffer pH 7.4 (0.5 mL) and phosphate buffer saturated with octanol (0.5 mL) were mixed with radiotracer of interest (^˜3 MBq). The samples were shaken for 15 min and then centrifuged at 5000 g for 5 min. Radioactivity in each phase was measured in a gamma counter (Wizard, PerkinElmer). Log D is expressed as the logarithm of the ratio between the radioactivity concentrations (Bq/mL) of the octanol and the buffer phase.

Data set [6] concerns the target T1, CB2. It counts as in vivo, male Wistar rats. The settings on record: baseline vs blocking with 1.5 mg/kg GW405833, Wistar rats. Set-up: from tissue; host or cells: organs of male Wistar rats after iv tracer injection. Here is the method: For blocking conditions, GW405833 (1.5 mg/kg) was injected 30 min before the experiment (n=3). Animals were sacrificed under anesthesia with isoflurane by decapitation at 15 min post injection (p.i). Organs were collected, weighed and radioactivity measured in a gamma-counter. The accumulated radioactivity in the organs was expressed as part per thousand normalized injected dose per gram of tissue (% o normalized ID/g tissue).

Data set [7] deals with T2, CB2. As to the kind of experiment: Autoradiography with post mortem spinal cord slices of ALS patients. It counts as binding. Set-up: from tissue; host or cells: human post mortem ALS spinal cord sections. The conditions noted are these: 0.2 nM tracer, absence or presence of 5 μM GW405833. The procedure: (§1) Rodent (mouse and rat) spleen tissue were embedded in TissueTek and cut into 20 μm-thick sections on a Cryostat HM 505 N (Microm) at −15° C. (blade and block). The slices were absorbed on SuperFrost Plus slides (Menzel) and stored at −80° until used. For the experiment, the slices were thawed on ice for 10 min before conditioning in incubation buffer (50 mM TRIS/HCl, 5% BSA, pH 7.4) on ice for 10 min. The slices were then dripped with 600 μL of radioligand solution (0.2 nM) in incubation buffer and incubated for 15 min at rt in a humid chamber. For blockade conditions, the slices were dripped with 600 μL of a mixture of radioligand and GW405833 (5 μM), a specific CB2 partial agonist. After incubation, the slices were washed with washing buffer (50 mM TRIS/HCl, 1% BSA, 5% EtOH, pH 7.4) for 2 min (2×) and with distilled water for 5 s (2×) on ice. After drying for 10 min at rt, the slices were exposed (30 min) to appropriate phosphor imager plates (Fuji) and the films were scanned in a BAS5000 reader (Fuji).
To evaluate the potential of our novel CB2 PET tracer in imaging ALS, post mortem spinal cord tissues from ALS patients were investigated in autoradiography experiments. Human post mortem ALS spinal cord tissue samples were embedded in TissueTek and cut into 20 μm-thick sections on a Cryostat. Autoradiography was performed as described in section “Example 5”.

Data set [8] deals with CB2. The experiment in a line: In vitro autoradiography of rat and mouse spleen slices. It is filed as binding. The conditions noted are these: 0.2 nM radioligand; for binding to spleen slices, displaced by excess of GW405833: blockade 5 μM GW405833. The procedure: as §1
In data set [9] the target is T3, CB2 (Mus musculus, UniProt P47936).
T3 construct: from tissue; host or cells: brain of living CD1 male mice (PET)
T3 sequence (P47936 whole entry): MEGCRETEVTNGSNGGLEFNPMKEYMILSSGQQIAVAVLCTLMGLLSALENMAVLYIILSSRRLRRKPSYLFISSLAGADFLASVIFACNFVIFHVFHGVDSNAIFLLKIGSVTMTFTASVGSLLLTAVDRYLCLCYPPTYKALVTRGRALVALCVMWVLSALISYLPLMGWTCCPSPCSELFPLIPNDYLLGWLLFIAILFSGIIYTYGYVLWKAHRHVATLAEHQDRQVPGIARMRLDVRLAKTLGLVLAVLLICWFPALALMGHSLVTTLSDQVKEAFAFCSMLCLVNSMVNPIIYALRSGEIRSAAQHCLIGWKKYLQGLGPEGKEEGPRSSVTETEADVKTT
The experiment in a line: LPS mouse model of neuroinflammation, small animal PET brain scans. It is filed as in vivo, CD1 male mice. Here is the method: As a model of neuroinflammation, six CD1 male mice were injected ip (100-150 μl) with 10 mg/kg lipopolysaccharide (LPS), Escherichia coli strain O111:B4, or vehicle (saline) 5 days prior to PET. […] For blocking conditions, 2.0 mg/kg GW405833 was injected sc 30 min before tracer application. Depth of anesthesia was monitored by measuring respiratory frequency (SA Instruments, Inc., Stony Brook, USA). Body temperature was controlled by a rectal probe and kept at 37° C. by a thermocoupler and a heated air stream. Data were reconstructed in user-defined time frames with a voxel size of 0.3875×0.3875×0.775 mm^3 by 2-dimensional-ordered subsets expectation maximization (2D-OSEM). Random and single but no attenuation correction was applied. PET acquisitions were followed by a CT for anatomical orientation. Image files were analyzed with PMOD 3.5 software (PMOD Technologies Ltd., Zurich, Switzerland). Tissue radioactivity was expressed as standardized uptake values (SUV), that is, the decay-corrected radioactivity per cm^3 divided by the injected radioactivity dose per gram of body weight.

T2 sequence (P34972 whole entry): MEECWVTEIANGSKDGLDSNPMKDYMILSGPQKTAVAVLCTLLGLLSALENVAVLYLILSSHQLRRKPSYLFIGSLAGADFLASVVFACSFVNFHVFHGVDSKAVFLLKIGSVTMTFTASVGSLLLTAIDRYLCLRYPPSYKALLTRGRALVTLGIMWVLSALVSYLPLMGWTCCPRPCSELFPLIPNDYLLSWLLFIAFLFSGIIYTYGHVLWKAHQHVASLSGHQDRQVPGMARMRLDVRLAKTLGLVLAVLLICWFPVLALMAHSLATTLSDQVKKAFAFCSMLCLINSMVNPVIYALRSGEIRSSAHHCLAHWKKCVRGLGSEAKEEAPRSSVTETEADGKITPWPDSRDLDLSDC

Turning to `CCCCCn1cc(C(=O)NC23CC4CC(CC(C4)C2)C3)c(=O)c2cccc(OC)c21` [KD2, N-(1-adamantyl)-1-pentyl-8-methoxy-4-oxo-1,4-dihydroquinoline-3-carboxamide], the distribution in brain entry at CB2 [1] (in vivo PET experiments) is “relatively low”. Moreover, the spleen uptake entry at CB2 [1] (rats, radiolabelled KD2) was “high spleen uptake”. Moreover, in data set [2], the “blood-brain barrier (BBB) passage” value was “moderate”. In addition, the “log D value at pH 7.4” value in [3] is listed as 3.29. Also, on CB2 [4], the Ki stood at 1.7 ± 2 nM.

With `CCCCn1cc(C(=O)NC23CC4CC(CC(C4)C2)C3)c(=O)c2cccc(OC)c21` [RS-005, N-(1-adamantyl)-1-butyl-8-methoxy-4-oxo-1,4-dihydroquinoline-3-carboxamide], the Ki at CB2 [4] is 3.3 ± 0.2 nM.

For the compound `CCCCn1cc(C(=O)NC(C)(C)C)c(=O)c2cccc(OC)c21` [RS-006, N-(tert-butyl)-1-butyl-8-methoxy-4-oxo-1,4-dihydroquinoline-3-carboxamide], the Ki at CB2 [4] came out at 8.2 ± 5.5 nM.

Turning to `CCCCn1cc(C(=O)NC2CCCC2)c(=O)c2cccc(OC)c21` [RS-007, 1-butyl-N-cyclopentyl-8-methoxy-4-oxo-1,4-dihydroquinoline-3-carboxamide], at CB2 [4], the Ki was found to be 19.7 ± 8.8 nM.

`CCCCn1cc(C(=O)NCC2CC2)c(=O)c2cccc(OC)c21` [RS-008, 1-butyl-N-(cyclopropylmethyl)-8-methoxy-4-oxo-1,4-dihydroquinoline-3-carboxamide]: the Ki on CB2 [4] is 78.8 ± 33.1 nM.

Turning to `COc1cccc2c(=O)c(C(=O)NC(C)(C)C)cn(CCCF)c12` [RS-011, N-(tert-butyl)-1-(3-fluoropropyl)-8-methoxy-4-oxo-1,4-dihydroquinoline-3-carboxamide], at CB2 [4], the Ki amounted to 750 ± 780 nM.

With `CCOCCn1cc(C(=O)NCCc2ccccc2)c(=O)c2cccc(OC)c21` [RS-022, 1-(2-ethoxyethyl)-8-methoxy-4-oxo-N-phenethyl-1,4-dihydroquinoline-3-carboxamide], the Ki at CB2 [4] turned out to be 360 ± 240 nM.

With `CCOCCn1cc(C(=O)NC23CC4CC(CC(O)(C4)C2)C3)c(=O)c2cccc(OC)c21` [RS-028, 1-(2-ethoxyethyl)-N-(3-hydroxyadamantan-1-yl)-8-methoxy-4-oxo-1,4-dihydroquinoline-3-carboxamide], the Ki on CB2 [4] amounted to 0.8 ± 0.8 nM.

Consider `CCOCCn1cc(C(=O)NC23CC4CC(CC(F)(C4)C2)C3)c(=O)c2cccc(OC)c21` [RS-030, 1-(2-ethoxyethyl)-N-(3-fluoroadamantyl)-8-methoxy-4-oxo-1,4-dihydroquinoline-3-carboxamide], for which the Ki on CB2 [4] was 2.1 ± 1.5 nM.

Consider `CCOCCn1cc(C(=O)NC23CC4CC(CC(C4)C2)C3)c(=O)c2cccc(OCCF)c21` [RS-122, N-(1-adamantanyl)-1-(2-ethoxyethyl)-8-(2-fluoroethoxy)-4-oxo-1,4-dihydroquinoline-3-carboxamide], for which, on CB2 [4], the Ki is 72 ± 102 nM.

Regarding `COc1cccc2c(=O)c(C(=O)NC34CC5CC(CC(C5)C3)C4)cn(CCOCCF)c12` [RS-126, N-(1-adamantyl)-1-(2-(2-fluoroethoxy)ethyl)-8-methoxy-4-oxo-1,4-dihydroquinoline-3-carboxamide], the Ki at CB2 [4] worked out at 1.2 ± 0.8 nM.

With `CCOCCn1cc(C(=O)NC23CC4CC(CC(C4)C2)C3)c(=O)c2cccc(OC)c21` [[^11C]RS-016, N-(1-adamantyl)-1-(2-ethoxyethyl)-8-methoxy-4-oxo-1,4-dihydroquinoline-3-carboxamide], in data set [5], the “log D pH 7.4” value worked out at 2.78. Moreover, the “share of total activity in spleen tissue due to specific CB2 binding” value on CB2 [6] came to 78%. In addition, the “binding to ALS spinal cord tissue” value at CB2 [7] was “high specific binding”. Moreover, in the data set with CB2 [8], the “unspecific binding on spleen slices” value is listed as “only little unspecific binding” and the “binding to spleen slices, displaced by excess of GW405833” value was “high binding to spleen”. At CB2 [9] (5 days after 10 mg/kg LPS ip, whole brain, cortex, hippocampus, cerebellum), the “tracer accumulation in brain regions after LPS treatment compared to vehicle group” value is “Increased”. For the same compound, the “tracer accumulation in brain regions after blockade” value on CB2 [9] (LPS mice, 2 mg/kg GW405833 sc 30 min before tracer) was “reduced in all brain regions”.

With `COc1cccc2c(=O)c(C(=O)NC34CC5CC(CC(C5)C3)C4)cn(CCOCC[18F])c12` [[^18F]RS-126], the pH-dependent lipophilicity (logD) (as a rule, lipophilicity at a set pH, counting ionised and neutral species) in data set [5] was found to be 1.99. In the data set on CB2 [8], the “unspecific binding on spleen slices” value was “only little unspecific binding” and the “binding to spleen slices, displaced by excess of GW405833” value is recorded as “high binding to spleen”.
